Source: patent publication US20200016133A1, “PREVENTION AND TREATMENT OF THROMBOSIS IN MEDICALLY ILL PATIENTS” (Portola Pharmaceuticals, Inc., priority 2011, published 2020)

Assay: effect of co-administered P-glycoprotein (Pgp) inhibitor on betrixaban exposure
Type: in vivo
Details: with concomitant Pgp inhibitor
Method: In some embodiments, a P-glycoprotein (Pgp) inhibitor is concomitantly administered to the patient. […] In one aspect, when used together with a Pgp inhibitor, betrixaban is administered at about 40 mg, or alternatively about 35 mg, or 30, or 25, or 20, or 15, or 10 mg daily. The same amount is applicable to patients who experience kidney insufficiency.

Question: For `COc1ccc(NC(=O)c2ccc(C(=N)N(C)C)cc2)c(C(=O)Nc2ccc(Cl)cn2)c1` [betrixaban, [2-({4-[(dimethylamino)iminomethyl]phenyl}carbonylamino)-5-methoxyphenyl]-N-(5-chloro(2-pyridyl))carboxamide], which exposure of betrixaban is on record?
Answer: increases the exposure
